# Reference: patent publication US8759051B2, “Control of contaminant microorganisms in fermentation processes with peroxygen-releasing compounds” (E I du Pont de Nemours and Company, priority 2010, dated 2014)
# Values joined by “and” are separate entries in the source; they are usually repeats but may differ in a detail not shown here. Equal entries are not always repeated.
# Experiment: Stability of peroxygen-releasing compounds during storage at 40° C., iodometric titration of hydrogen peroxide (Example 4)
# Assay type: physicochemical
# Method: A dry oven was used to store samples of the peroxygen-releasing compounds at 40° C. The oven was allowed to equilibrate overnight. Two-gram duplicate samples of each of the following peroxygen-releasing compounds were dispensed into aluminum weighing dishes: sodium percarbonate (Alfa Aesar, Ward Hill, Mass.), sodium percarbonate FB 400 (Solvay Chemicals, Inc., Houston, Tex.), sodium percarbonate FB […] (Solvay Chemicals, Inc.), calcium peroxide (Sigma-Aldrich Co., St. […] After six days, samples were analyzed for levels of hydrogen peroxide using standard iodometric titration.
smiles,measurement,setting,value
"O=C([O-])[O-].O=C([O-])[O-].OO.OO.OO.[Na+].[Na+].[Na+].[Na+] [Sodium percarbonate, sodium percarbonate]",% Remaining H2O2 Day 0,,100%
same,% Remaining H2O2 Day 6,,99%
same,% Remaining H2O2 Day 14,,99%
same,% H2O2 Day 0,"before storage, duplicate samples, listed as Sodium percarbonate (Alfa Aesar)",27.48% and 27.38%
same,% H2O2 Day 6,"storage at 40° C. in dry oven, day 6, duplicate samples, listed as Sodium percarbonate (Alfa Aesar)",27.12% and 27.05%
same,% H2O2 Day 14,"storage at 40° C. in dry oven, day 14, duplicate samples, listed as Sodium percarbonate (Alfa Aesar)",27.11% and 26.99%
